The nature of the data set: gradient 5% acetonitrile 3 min, to 50% in 2 min, to 85% in 15 min, held 3 min, 100 µL/min. To be noted: column: Zorbax Extend-C18 2.1 x 50 mm; eluents: water / acetonitrile, 0.1% formic acid. Summed up: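 The system's dead and dwell volumes were 40 μL and 900 μL, with a Zorbax Extend-C18 column (2.1 × 50 mm, 1.8 μm) run at 100 μL/min in water and acetonitrile containing 0.1% formic acid each. Pure standards were analyzed in mixtures of ~100 molecules by HPLC–quadrupole time-of-flight mass spectrometry in positive and negative ionization mode. Retention time was assigned from computationally picked, manually inspected adduct peaks.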
For `Cc1ccc(CNS(=O)(=O)c2ccc3c(c2)C(=O)N(C)c2ncccc2O3)cc1C`, the RP-LC retention time was 986 s.
`CCc1nc2c(c(=O)n1CC(=O)NCc1ccccc1F)CN(Cc1ccccc1)CC2`: the RP-LC retention time turned out to be 649 s.
The compound `Cc1ccc2nc(NC(=O)C3CCN(S(=O)(=O)c4cn(C(C)C)cn4)CC3)sc2c1` gave an RP-LC retention time of 849 s.
`O=C(CCC(=O)N1CCNc2ccccc2C1)N1CCOCC1` gave an RP-LC retention time of 585 s.
With `CC1(C(=O)NCc2ccc(F)cc2)CCCN(C(=O)Nc2ccccc2C(F)(F)F)C1` (centres undefined), the RP-LC retention time amounted to 949 s.
For `O=C(NCc1ccccc1)c1c(O)c2cccnc2[nH]c1=O`, the RP-LC retention time stood at 913 s.
In the case of `CC(C)n1cnc2ccc(-c3noc(-c4ccccc4)n3)cc21`, the RP-LC retention time was 793 s.
In turn, `O=C(Cn1c2ccccc2c2ncn(Cc3nc(C4CC4)no3)c(=O)c21)Nc1ccc2c(c1)OCO2` came in with an RP-LC retention time of 823 s.
With `COC(=O)c1ccccc1NC(=O)Cn1cccc(-c2nc(-c3ccc(Cl)cc3)no2)c1=O`, the RP-LC retention time is 1070 s.
To `Cc1ccc(S(=O)(=O)c2ccc(N3CCN(c4ccccn4)CC3)nn2)cc1C` belongs 657 s.
In the case of `CC(Oc1ccc(=O)n(-c2ccc(F)cc2)n1)C(=O)Nc1cccc(F)c1` (centres undefined), the RP-LC retention time is 793 s.
To `O=C(NC1CC1)C1Cc2ccccc2CN1S(=O)(=O)c1ccc(Cl)cc1` (centres undefined) belongs 909 s; to `Cc1ccc(N2C=C(C(=O)N3CCCC3)S(=O)(=O)c3ccccc32)cc1`, 802 s; to `CCC(C)n1c(=O)c2ccccc2n(Cc2nc(-c3ccc(Cl)cc3)no2)c1=O` (centres undefined), 1280 s.
Consider `COc1cc(NS(=O)(=O)c2c[nH]c3ncccc23)cc(OC)c1`, for which the RP-LC retention time amounted to 707 s.
As for `CNC(=O)Nc1ccc(C2(C(=O)NCc3ccc(F)cc3Cl)CCC2)cc1`, the RP-LC retention time is 784 s.
`Cc1ccc(CNS(=O)(=O)c2ccc(-c3c(C)noc3C)cc2)cc1` yielded an RP-LC retention time of 996 s.
For the compound `CCOC(=O)C1CCN(C(=O)C2c3ccccc3C(=O)N(C)C2c2cccs2)CC1` (centres undefined), the RP-LC retention time was determined as 810 s.
Turning to `Cc1ccc(-c2cn3c(C(=O)Nc4nc(C)cs4)csc3n2)cc1`, the RP-LC retention time is 848 s.
Consider `Cc1cccc(-c2noc(Cn3ncn4nc(-c5ccccc5Cl)cc4c3=O)n2)c1`, for which the RP-LC retention time was determined as 1200 s.
As for `O=C(Nc1ccc(N2CCN(C3CCCCC3)C2=O)nc1)c1ccc(F)c(F)c1`, the RP-LC retention time turned out to be 886 s.
`CCCN1CCN(C(=O)C2CCN(S(=O)(=O)c3cc(C(=O)N4CCCC4)n(C)c3)CC2)CC1` came in with an RP-LC retention time of 574 s.
To `COC(=O)c1nnn(-c2cc(Cl)ccc2OC)c1C(=O)OC` belongs 898 s; to `O=C(NCCCn1cccn1)c1cccc2[nH]cc(CN3CCSCC3)c12`, 628 s.
As to `O=C(NCc1[nH]nc2ccccc12)c1ccc(Cl)cc1`, the RP-LC retention time was found to be 779 s.
As to `CCC(C)NC(=O)c1ccc2c(ccn2C)c1` (centres undefined), the RP-LC retention time came out at 779 s.
To `O=C(NCc1ccc(N2CCCCCC2)nc1)c1cncc(Br)c1` belongs 603 s; to `Cc1nn(C)c(C)c1CCN(C)C(=O)C1CCCCC(=O)N1C` (centres undefined), 582 s; to `Cc1ccccc1/C=C/C1=NCCN1`, 665 s.
In turn, `CC(C)CN1CCn2cc(C(=O)N3CCN(c4ccccn4)CC3)nc2C1` gave an RP-LC retention time of 526 s.
The compound `CCOC(=O)c1cnc2nc(C)ccc2c1Nc1cc(Cl)ccc1F` gave an RP-LC retention time of 774 s.
`Cc1nc(C)c(-c2ccc(=O)n(CCNS(=O)(=O)c3ccc4c(c3)OCCO4)n2)s1` yielded an RP-LC retention time of 642 s.
Compound `O=C1CCCCC(Cc2ccccc2)(C(=O)N2CCc3ccccc3C2)N1` (centres undefined) showed an RP-LC retention time of 836 s.
Compound `Cc1ccnc(Nc2nc(C)c3ccccc3n2)n1` showed an RP-LC retention time of 580 s.
`CCOCCCNC(=O)c1c(N2CCCC2=O)c2cc(C)ccc2n1C` returned an RP-LC retention time of 782 s.
In turn, `CCn1c(C(=O)N2CCN(c3cccc(OC)c3)CC2)cc2sccc21` displayed an RP-LC retention time of 1050 s.
`O=C(NCc1ccc(Br)cc1)c1sc2ncccc2c1-n1cccc1` displayed an RP-LC retention time of 1090 s.
Consider `Cn1c(=O)n(C)c2cc(S(=O)(=O)N3CCN(c4ccccn4)CC3)c(Cl)cc21`, for which the RP-LC retention time was found to be 602 s.
As for `CCCNC(=O)c1cnn(-c2ccc(-c3nc(C(C)(C)C)no3)cn2)c1C`, the figure is 1070 s.
For the compound `OC[C@H]1O[C@@H](n2cnc3c(NC4CCCC4)nc(Cl)nc32)[C@@H](O)C1O` (some centres undefined), the RP-LC retention time came to 713 s.
Regarding `CCc1ccccc1NC(=O)N1CCCC(C)(C(=O)NCc2ccc(F)cc2)C1` (centres undefined), the RP-LC retention time is 864 s.
Compound `Cc1cccc(NC(=O)C2CN(C(=O)c3cc(C)on3)C2)n1` registered an RP-LC retention time of 601 s.
Compound `Cc1nc(N2CCCC(C(=O)Nc3ccc4c(c3)OCCO4)C2)c2c(C)c(C)oc2n1` (centres undefined) returned an RP-LC retention time of 846 s.
`N#CCc1cnc2ccccc2n1` yielded an RP-LC retention time of 720 s.
Consider `Cn1c(N2CCN(C(=O)c3ccc4c(c3)OCO4)CC2)cc(=O)n(C)c1=O`, for which the RP-LC retention time was determined as 637 s.
`Cc1ccnc(N2CCC(C(=O)NCCCN3CCCCC3)CC2)n1`: the RP-LC retention time worked out at 559 s.
To `Cn1nc2n(c1=O)CCN(C(=O)c1cc(CN3CCOCC3)on1)CC2` belongs 534 s; to `Cc1cc(C)cc(-c2nnc(Cc3nc(-c4ccccc4F)no3)o2)c1`, 1080 s.
`Cc1ccc(NC(=O)C2CCN(S(=O)(=O)c3c(C)[nH]c(C)c3C(=O)N3CCCC3)CC2)c(C)c1` returned an RP-LC retention time of 729 s.
As to `COc1ccc2c(c1)c(CN1CCC(C(=O)NCCN3CCOCC3)CC1)cn2C`, the RP-LC retention time was 553 s.
For `CCN1CCCC1CNC(=O)c1nc(-c2oc3c(C)cccc3c2C)no1` (centres undefined), the RP-LC retention time turned out to be 670 s.
In turn, `COC(=O)c1cc(S(=O)(=O)N2CCCC2C(=O)Nc2cccc(SC)c2)cn1C` (centres undefined) gave an RP-LC retention time of 909 s.
As for `Cc1cc2nnc(SCC(=O)c3ccc4c(c3)OCO4)n2c2ccccc12`, the RP-LC retention time was 793 s.
Consider `O=C1CCc2cc(S(=O)(=O)N3CCCC3C(=O)N3CCN(c4ccccc4)CC3)ccc2N1` (centres undefined), for which the RP-LC retention time worked out at 713 s.
In turn, `COc1ccc(-c2noc(CN3C(=O)COc4cc(C(C)(C)C)ccc43)n2)cc1OC` came in with an RP-LC retention time of 1110 s.
Take `O=C(NC(c1nnc(-c2ccccc2)o1)c1ccccc1Cl)c1ccco1` (centres undefined): the RP-LC retention time stood at 911 s.
With `Cn1cc(CCN2CCN(S(=O)(=O)c3ccc(Cl)cc3)CC2)c2cccnc21`, the RP-LC retention time worked out at 645 s.
In turn, `N#Cc1ccccc1CN1C[C@@H](CO)[C@H](c2nc(C3CC3)no2)C1` showed an RP-LC retention time of 607 s.
As for `Cn1c(=O)n(CCN2CCCCC2)c(=O)c2c1nc1n2CCCN1c1ccc(Br)cc1`, the figure is 678 s; as for `Cc1[nH]c(=O)[nH]c(=O)c1S(=O)(=O)NC(C)C`, 581 s; as for `Cc1nc(-c2noc(-c3cccnc3)n2)cn1CC(=O)N1CCc2ccccc21`, 714 s.
Consider `Cc1nc(-c2ccncc2)nc2c1CCC(=O)N2CCCN(C)C`, for which the RP-LC retention time stood at 549 s.
To `CCc1ccc(C(=O)c2cnc3cc4c(cc3c2N2CCN(CC)CC2)OCO4)cc1` belongs 608 s.
On to `O=C(c1ccccc1Sc1nccnc1Oc1ccccc1)N1CCOCC1`, for which the RP-LC retention time turned out to be 859 s.
To `CC(C)c1ccc(-c2nc3ncccn3c2NCc2ccccc2)cc1` belongs 859 s; to `O=C(NC1CCCCC1)c1ccc2c(c1)nc1n2CCN(C2CCCCC2)C1=O`, 796 s; to `COc1ccc(Cl)cc1NC(=O)N1CCN(c2cc(C)nc(N3CCOCC3)n2)CC1`, 659 s.
Regarding `NC(=O)c1nsc2c(=O)n(CC(=O)NCc3ccco3)cnc12`, the RP-LC retention time was 589 s.
As for `COc1cccc(OC)c1C(=O)Nc1nnc(SCc2nnc(-c3ccccc3C)o2)s1`, the figure is 888 s; as for `CCOc1ccc(-c2cc3c(=O)n(Cc4nc(-c5cccc(F)c5)no4)ccn3n2)cc1`, 1140 s.
Regarding `COC(=O)c1ncn2c1C(=O)N(Cc1ccccc1Cl)C(C)(C(=O)NC1CCCCC1)C2` (centres undefined), the RP-LC retention time was determined as 804 s.
Compound `CC1Oc2ccc(-c3csc(NC(=O)c4ccccc4Cl)n3)cc2N(C)C1=O` (centres undefined) had an RP-LC retention time of 968 s.
Compound `CCCNC(=O)C1CCN(c2ccc(SCC(=O)NCc3ccc(C)c(C)c3)nn2)CC1` gave an RP-LC retention time of 663 s.
`Cc1c(C(=O)N2CCN(C)CC2)cc(-c2ccccc2)n1C` gave an RP-LC retention time of 612 s.
To `Cc1ccc(-n2ccc(=O)c(-c3nc(-c4ccccc4Br)no3)n2)cc1C` belongs 1020 s.
`O=C(NCCS(=O)(=O)N1CCN(c2ccc(F)cc2)CC1)c1cccc([N+](=O)[O-])c1` had an RP-LC retention time of 834 s.
To `CCOc1ccc(-c2ccc(=O)n(Cc3nc(-c4ccccc4C)no3)n2)cc1` belongs 1040 s; to `CC(C)Oc1ccc(-c2noc(Cn3c(=O)n(C(C)C)c(=O)c4ccccc43)n2)cc1`, 1140 s; to `O=C(CN1C(=O)C2CCCCN2c2ccc(C(=O)N3CCOCC3)cc21)NCc1ccc(F)cc1` (centres undefined), 734 s.

The record behind these values is the METLIN SMRT retention time set (Domingo-Almenara et al. 2019).
